Like-named read-outs stand apart in the source and are kept apart here.

Assay [1] addresses T1, IRAK4 (Homo sapiens (Human), UniProt Q9NWZ3). Description: IRAK4 Degradation HiBiT Assay. To be noted: HiBiT-tagged Jurkat cells, 4 hrs; for DC50: read-out: Cellular IRAK4 HiBiT: DC50; for Dmax: Jurkat. A general note: The HiBiT peptide binds its large partner to form an active luciferase.
Target sequence in this assay (Q9NWZ3 whole entry): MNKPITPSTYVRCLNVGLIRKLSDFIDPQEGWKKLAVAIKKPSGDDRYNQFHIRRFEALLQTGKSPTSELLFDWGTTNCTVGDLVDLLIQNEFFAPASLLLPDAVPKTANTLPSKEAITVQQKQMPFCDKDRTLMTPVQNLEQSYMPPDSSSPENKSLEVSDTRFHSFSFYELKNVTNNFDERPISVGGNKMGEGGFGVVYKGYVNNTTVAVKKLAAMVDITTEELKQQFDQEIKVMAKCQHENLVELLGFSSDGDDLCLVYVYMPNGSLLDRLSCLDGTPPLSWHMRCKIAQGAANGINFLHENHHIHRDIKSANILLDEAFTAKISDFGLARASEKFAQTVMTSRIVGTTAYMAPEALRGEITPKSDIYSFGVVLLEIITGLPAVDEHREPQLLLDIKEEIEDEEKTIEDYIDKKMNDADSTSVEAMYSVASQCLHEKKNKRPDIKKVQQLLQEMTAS
Assay [2] addresses T1, IRAK4. Description: IRAK4 Biochemical HTRF Kinase Assay. The following applies: read-out: IRAK4 HTRF biochemical: IC50. In outline: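 IC50 values derive from non-linear regression of sixteen concentrations in duplicate. Kinase reaction ran 90 min at ambient temperature after adding 5 μM STK-S1 substrate, 10 mM ATP and 10 mM MgCl2 (reaction-solution levels, pre-dilution to 10 μl); phospho-peptide detected by HTRF after 60 min.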
Target sequence in this assay (Q9NWZ3 whole entry, species assumed): as the sequence (Q9NWZ3 whole entry) above

The mark [3] stands for this setting: read-out: Cellular IRAK4 HiBiT: Dmax, Table 5, multiple runs.
The mark [4] stands for this setting: read-out: Cellular IRAK4 HiBiT: Dmax, Table 4.

As usually defined, the DC50 is the concentration at which degradation of the target reaches its halfway point. The IC50 is the concentration needed to halve the response being measured. On to `CNc1cc(-c2ccc3cc(C#N)cnn23)ncc1-c1nnc(N2CCCC3(CN(Cc4ccc5c(c4)C(=O)N(C4CCC(=O)NC4=O)C5=O)C3)C2)s1` (centres unmarked) [Example 122, 7-(5-(5-(2-((2-(2,6-dioxopiperidin-3-yl)-1,3-dioxoisoindolin-5-yl)methyl)-2,6-diazaspiro[3.5]nonan-6-yl)-1,3,4-thiadiazol-2-yl)-4-(methylamino)pyridin-2-yl)pyrrolo[1,2-b]pyridazine-3-carbonitrile], for which the DC50 in assay [1] (Table 5, multiple runs) was above 9980 nM. In addition, the IC50 in assay [2] (Table 5, multiple runs) was 1.1 nM.

Usually Dmax stands for the greatest extent of degradation seen. For the molecule `CNc1cc(-c2ccc3cc(C#N)cnn23)ncc1-c1nnc(N2CC3CCC(C2)N3C2CCN(Cc3ccc4c(c3)C(=O)N(C3CCC(=O)NC3=O)C4=O)CC2)s1` (centres unmarked) [Example 165, 7-(5-(5-(8-(1-((2-(2,6-dioxopiperidin-3-yl)-1,3-dioxoisoindolin-5-yl)methyl)piperidin-4-yl)-3,8-diazabicyclo[3.2.1]octan-3-yl)-1,3,4-thiadiazol-2-yl)-4-(methylamino)pyridin-2-yl)pyrrolo[1,2-b]pyridazine-3-carbonitrile], the Dmax in assay [1] (setting [3]) was 100%. Further, the DC50 in assay [1] (Table 5, multiple runs) turned out to be 21 nM. For the same molecule, the IC50 in assay [2] (Table 5, multiple runs) was 0.4 nM.

Turning to `CC(C)Nc1cc(-c2ccc3cc(C#N)cnn23)ncc1-c1nnc(N2CCN(CC3CCN(c4cccc5c4n(C)c(=O)n5C4CCC(=O)NC4=O)CC3)CC2)s1` (centres unmarked) [Example 32, 7-(5-(5-(4-((1-(1-(2,6-dioxopiperidin-3-yl)-3-methyl-2-oxo-2,3-dihydro-1H-benzo[d]imidazol-4-yl)piperidin-4-yl)methyl)piperazin-1-yl)-1,3,4-thiadiazol-2-yl)-4-(isopropylamino)pyridin-2-yl)pyrrolo[1,2-b]pyridazine-3-carbonitrile], the Dmax in assay [1] (setting [4]) and in assay [1] (setting [3]) was 37% throughout. For the same molecule, the DC50 is 152 nM in assay [1] (Table 4) and 153 nM in assay [1] (Table 5, multiple runs). The IC50 in assay [2] (Table 4) is 2.3 nM; in assay [2] (Table 5, multiple runs), 2.5 nM.

In the case of `CC(C)Nc1cc(-c2ccc3cc(C#N)cnn23)ncc1-c1nnc(N2CCN(C[C@H]3CCN(c4ccc5c(c4)C(=O)N(C4CCC(=O)NC4=O)C5=O)C3)CC2)s1` (stereo partly drawn) [Example 19, 77-(5-(5-(4-(((3R)-1-(2-(2,6-dioxopiperidin-3-yl)-1,3-dioxoisoindolin-5-yl)pyrrolidin-3-yl)methyl)piperazin-1-yl)-1,3,4-thiadiazol-2-yl)-4-(isopropylamino)pyridin-2-yl)pyrrolo[1,2-b]pyridazine-3-carbonitrile], the Dmax in assay [1] (setting [4]) came to 79%; in assay [1] (setting [3]), 67%. For the same molecule, the DC50 in assay [1] (Table 4) was found to be 90.1 nM; in assay [1] (Table 5, multiple runs) it was 90.6 nM. The IC50 in assay [2] (Table 4) came out at 2.2 nM; in assay [2] (Table 5, multiple runs), 2.2 nM.

On to `CNc1cc(-c2ccc3cc(C#N)cnn23)ncc1-c1nnc(N2CCN(C3CCN(Cc4ccc(C(=O)NC5CCC(=O)NC5=O)cc4)CC3)CC2)s1` (centres unmarked) [Example 145, 4-((4-(4-(5-(6-(3-cyanopyrrolo[1,2-b]pyridazin-7-yl)-4-(methylamino)pyridin-3-yl)-1,3,4-thiadiazol-2-yl)piperazin-1-yl)piperidin-1-yl)methyl)-N-(2,6-dioxopiperidin-3-yl)benzamide], for which the Dmax in assay [1] (setting [3]) turned out to be 49%. Besides, in assay [1] (Table 5, multiple runs), the DC50 was determined as 109 nM. In assay [2] (Table 5, multiple runs), the IC50 turned out to be 1.8 nM.

Regarding `CNc1cc(-c2ccc3cc(C#N)cnn23)ncc1-c1nnc([C@H]2CC[C@H](N(C)C(=O)C[C@H](NC(=O)[C@@H]3C[C@@H](O)CN3C(=O)C(c3cc(C)no3)C(C)C)c3ccc(-c4scnc4C)cc3)CC2)s1` (stereo partly drawn) [Example 191, (2S,4R)—N—((S)-3-(((1r,4S)-4-(5-(6-(3-cyanopyrrolo[1,2-b]pyridazin-7-yl)-4-(methylamino)pyridin-3-yl)-1,3,4-thiadiazol-2-yl)cyclohexyl)(methyl)amino)-1-(4-(4-methylthiazol-5-yl)phenyl)-3-oxopropyl)-4-hydroxy-1-(3-methyl-2-(3-methylisoxazol-5-yl)butanoyl)pyrrolidine-2-carboxamide], in assay [1] (setting [3]), the Dmax came out at 110%. Also, the DC50 in assay [1] (Table 5, multiple runs) amounted to 48.2 nM. Moreover, the IC50 in assay [2] (Table 5, multiple runs) was found to be 1.5 nM.

Take `CC(C)Nc1cc(-c2ccc3cc(C#N)cnn23)ncc1-c1nnc(N2CCN(C(=O)CCCCCCCNc3cccc4c3C(=O)N(C3CCC(=O)NC3=O)C4=O)CC2)s1` (centres unmarked) [Example 8, 7-(5-(5-(4-(8-((2-(2,6-dioxopiperidin-3-yl)-1,3-dioxoisoindolin-4-yl)amino)octanoyl)piperazin-1-yl)-1,3,4-thiadiazol-2-yl)-4-(isopropylamino)pyridin-2-yl)pyrrolo[1,2-b]pyridazine-3-carbonitrile]: the Dmax in assay [1] (setting [4]) and in assay [1] (setting [3]) was 100% each time. For the same molecule, the DC50 in assay [1] (Table 4) was 53.8 nM; in assay [1] (Table 5, multiple runs), 53.8 nM. Further, the IC50 in assay [2] (Table 4) was 0.8 nM; in assay [2] (Table 5, multiple runs), 0.8 nM.

Take `CC(C)Nc1cc(-c2ccc3cc(C#N)cnn23)ncc1-c1nnc(N2CCN(C3CCN(C(=O)Cc4cccc5c4CN(C4CCC(=O)NC4=O)C5=O)CC3)CC2)s1` (centres unmarked) [Example 76, 7-(5-(5-(4-(1-(2-(2-(2,6-dioxopiperidin-3-yl)-1-oxoisoindolin-4-yl)acetyl)piperidin-4-yl)piperazin-1-yl)-1,3,4-thiadiazol-2-yl)-4-(isopropylamino)pyridin-2-yl)pyrrolo[1,2-b]pyridazine-3-carbonitrile]: in assay [1] (setting [3]), the Dmax was found to be 100%. Further, the DC50 in assay [1] (Table 5, multiple runs) is 13.1 nM. Moreover, the IC50 in assay [2] (Table 5, multiple runs) turned out to be 0.8 nM.

As to `CNc1cc(-c2ccc3cc(C#N)cnn23)ncc1-c1nnc(N2CCN(C(=O)C3CCN(Cc4ccc5c(c4)C(=O)N(C4CCC(=O)NC4=O)C5=O)CC3)CC2)s1` (centres unmarked) [Example 86, 7-(5-(5-(4-(1-((2-(2,6-dioxopiperidin-3-yl)-1,3-dioxoisoindolin-5-yl)methyl)piperidine-4-carbonyl)piperazin-1-yl)-1,3,4-thiadiazol-2-yl)-4-(methylamino)pyridin-2-yl)pyrrolo[1,2-b]pyridazine-3-carbonitrile], in assay [1] (setting [3]), the Dmax came out at 105%. Besides, the DC50 in assay [1] (Table 5, multiple runs) came out at 18.5 nM. Further, the IC50 in assay [2] (Table 5, multiple runs) came to 1.1 nM.

`CNc1cc(-c2ccc3cc(C#N)cnn23)ncc1-c1nnc(N2CCC(NC(=O)CN3CCN(c4ccc5c(c4)C(=O)N(C4CCC(=O)NC4=O)C5=O)CC3)CC2)s1` (centres unmarked) [Example 95, N-(1-(5-(6-(3-cyanopyrrolo[1,2-b]pyridazin-7-yl)-4-(methylamino)pyridin-3-yl)-1,3,4-thiadiazol-2-yl)piperidin-4-yl)-2-(4-(2-(2,6-dioxopiperidin-3-yl)-1,3-dioxoisoindolin-5-yl)piperazin-1-yl)acetamide]: the Dmax in assay [1] (setting [3]) came to 108%. Besides, in assay [1] (Table 5, multiple runs), the DC50 is 9.74 nM. Moreover, in assay [2] (Table 5, multiple runs), the IC50 came out at 0.8 nM.

On to `Cc1ncsc1-c1ccc(CNC(=O)[C@@H]2C[C@@H](O)CN2C(=O)[C@@H](NC(=O)C2(F)CC2)C(C)(C)C)c(OCCCCCCCC(=O)N2CCN(c3nnc(-c4cnc(-c5ccc6cc(C#N)cnn56)cc4NC(C)C)s3)CC2)c1` [Example 43, (2S,4R)—N-(2-((8-(4-(5-(6-(3-cyanopyrrolo[1,2-b]pyridazin-7-yl)-4-(isopropylamino)pyridin-3-yl)-1,3,4-thiadiazol-2-yl)piperazin-1-yl)-8-oxooctyl)oxy)-4-(4-methylthiazol-5-yl)benzyl)-1-((S)-2-(1-fluorocyclopropane-1-carboxamido)-3,3-dimethylbutanoyl)-4-hydroxypyrrolidine-2-carboxamide], for which the values for the Dmax in assay [1] (setting [4]) and in assay [1] (setting [3]) were 78% and 67%, respectively. Besides, the DC50 in assay [1] (Table 4) was determined as 1170 nM; in assay [1] (Table 5, multiple runs) it was 1090 nM. Also, the IC50 amounted to 24.1 nM in assay [2] (Table 4) and 24 nM in assay [2] (Table 5, multiple runs).

Take `CC(C)Nc1cc(-c2ccc3cc(C#N)cnn23)ncc1-c1nnc(N2CCN(C(=O)CCOCCOCCOCCNc3cccc4c3C(=O)N(C3CCC(=O)NC3=O)C4=O)CC2)s1` (centres unmarked) [Example 11, 7-(5-(5-(4-(3-(2-(2-(2-((2-(2,6-dioxopiperidin-3-yl)-1,3-dioxoisoindolin-4-yl)amino)ethoxy)ethoxy)ethoxy)propanoyl)piperazin-1-yl)-1,3,4-thiadiazol-2-yl)-4-(isopropylamino)pyridin-2-yl)pyrrolo[1,2-b]pyridazine-3-carbonitrile]: the Dmax in assay [1] (setting [4]) and in assay [1] (setting [3]) was 104% in each case. The DC50 stood at 128 nM in assay [1] (Table 4) and 128 nM in assay [1] (Table 5, multiple runs). Besides, the IC50 was determined as 1.3 nM in assay [2] (Table 4) and 1.3 nM in assay [2] (Table 5, multiple runs).

`CC(C)Nc1cc(-c2ccc3cc(C#N)cnn23)ncc1-c1nnc(N2CCN(C(=O)CCOCCNc3ccc4c(c3)C(=O)N(C3CCC(=O)NC3=O)C4=O)CC2)s1` (centres unmarked) [Example 10, 7-(5-(5-(4-(3-(2-((2-(2,6-dioxopiperidin-3-yl)-1,3-dioxoisoindolin-5-yl)amino)ethoxy)propanoyl)piperazin-1-yl)-1,3,4-thiadiazol-2-yl)-4-(isopropylamino)pyridin-2-yl)pyrrolo[1,2-b]pyridazine-3-carbonitrile]: the Dmax in assay [1] (setting [4]) and in assay [1] (setting [3]) was 103% in each case. Also, the DC50 in assay [1] (Table 4) stood at 49.1 nM; in assay [1] (Table 5, multiple runs) it was 49.1 nM. Further, the IC50 in assay [2] (Table 4) is 1 nM; in assay [2] (Table 5, multiple runs), 1 nM.

Values taken from patent publication US12528814B2, “Bifunctional degraders of interleukin-1 receptor-associated kinases and therapeutic use thereof” (NURIX THERAPEUTICS, INC., priority 2020, dated 2026).
